Test results published in US7153930B1, “Peptide transport” (priority 1999, dated 2006).
Non-standard residues stand in square brackets, D forms with d. Residues, ends and D or L forms follow the SMILES beside them. *: point of attachment. Cholyl = C[C@H](CCC(=O)*)[C@H]1CC[C@H]2[C@@H]3[C@H](O)C[C@@H]4C[C@H](O)CC[C@]4(C)[C@H]3C[C@H](O)[C@]12C; pGlu = O=C1CC[C@@H](C(=O)O)N1

How the values were obtained:
gastric acid secretion [1] = test: Gastric acid secretion in anaesthetized rats after I.V., intra-ileal or jejunal administration of gastrin peptides (back titration of HCl); details: for absorption across the ileal wall into the circulation: cholate conjugated form introduced into the ileum; for stimulation of the peak gastric acid secretion: 5 rats; for effect on gastric acid secretion: unconjugated gastrin without prior injection of the respective conjugate; for increase in gastric acid secretion with respect to baseline: P=0.001
Experimental: (§1) Experiments were carried out on male Wistar rats of 250–350 g, which had been starved overnight, and which were anaesthetized with an I.P. injection of Sagatal (pentobarbitone sodium, obtainable from Rhône Mérieux, Harlow Essex, UK) of dosage appropriate to the body weight. The criterion for anaesthesia was abolition of the hind limb flexor withdrawal reflex. The following surgical procedures were then carried out: tracheostomy to allow artificial ventilation if required, cannulation of the carotid artery to monitor blood pressure, cannulation of the external jugular vein to allow for the slow bolus infusion of drugs, intubation of the stomach at the pyloro-duodenal junction after ligation of the oesophagus to measure gastric acid secretion, cannulation of the terminal ileum and/or of the proximal jejunum distal to the ligament of Treitz for infusion of peptide hormones.
(§2) Gastric acid secretion was measured by the following method. 1.0 ml of glycine/mannitol buffer (1 part glycine (0.3M) and 4 parts D-mannitol (0.3M) adjusted to pH 6.5) was instilled into the stomach and left for 15 min when withdrawal was made. The HCl secreted was determined by back titration with 10 mM NaOH to pH 6.5.
(§3) The data are expressed as the mean±S.D. μmol HCl secreted by the stomach over the stated time period in response to the experimental procedure.

gastric acid secretion [2] = details: rat, in vivo
Experimental: as §1, §2, §3

## CSCC[C@H](NC(=O)[C@H](Cc1c[nH]c2ccccc12)NC(=O)CNC(=O)[C@H](Cc1ccc(O)cc1)NC(=O)[C@H](C)NC(=O)[C@H](CCC(=O)O)NC(=O)[C@H](CCC(=O)O)NC(=O)[C@H](CCC(=O)O)NC(=O)CC[C@@H](C)[C@H]1CC[C@H]2[C@@H]3[C@H](O)C[C@@H]4C[C@H](O)CC[C@]4(C)[C@H]3C[C@H](O)[C@]12C)C(=O)N[C@@H](CC(=O)O)C(=O)N[C@@H](Cc1ccccc1)C(N)=O [G10-CA, cholate-Glu-Glu-Glu-Ala-Tyr-Gly-Trp-Met-Asp-Phe-amide] (Cholyl-EEEAYGWMDF-NH2)
Gastric acid secretion [1]
  absorption across the ileal wall into the circulation: absorption of the conjugated gastrin across the ileal wall into the circulation occurred

## H-EEEAYGWMDF-NH2 [G10, H-Glu-Glu-Glu-Ala-Tyr-GlyTrp-Met-Asp-Phe-amide]
Gastric acid secretion [2]
  absorption of unconjugated gastrin: absorption of the unconjugated gastrin occurred
Gastric acid secretion [1]; I.V. 36 μg kg^−1, initial injection, P=0.036
  stimulation of the peak gastric acid secretion: 1.28 ± 0.93 µmol
Gastric acid secretion [1]; I.V. 36 μg kg^−1, second injection at the end of the experiment, P=0.048
  stimulation of the peak gastric acid secretion: 1.45 ± 1.15 µmol
Gastric acid secretion [1]; infusion into the ileum, 6600 μg kg^−1 in 1.0 ml, not significant (P=0.23)
  change in gastric acid secretion: −1.22±1.93 μmol 180 min^−1
Gastric acid secretion [1]
  effect on gastric acid secretion: without effect on gastric acid secretion

## CC[C@H](C)[C@H](NC(=O)[C@H](Cc1ccccc1)NC(=O)[C@H](Cc1c[nH]cn1)NC(=O)[C@H](CCC(N)=O)NC(=O)[C@@H]1CCCN1C(=O)CNC(=O)[C@H](CCC(N)=O)NC(=O)[C@@H]1CCCN1C(=O)CNC(=O)[C@H](CC(C)C)NC(=O)[C@H](CCC(=O)O)NC(=O)CC[C@@H](C)[C@H]1CC[C@H]2[C@@H]3[C@H](O)C[C@@H]4C[C@H](O)CC[C@]4(C)[C@H]3C[C@H](O)[C@]12C)C(=O)N[C@@H](C)C(=O)N[C@@H](CC(=O)O)C(=O)N[C@@H](CC(C)C)C(=O)N[C@@H](CO)C(=O)N[C@@H](CCCCN)C(=O)N[C@@H](CCCCN)C(=O)N[C@@H](CCC(N)=O)C(=O)N[C@@H](CCCNC(=N)N)C(=O)N1CCC[C@H]1C(=O)N1CCC[C@H]1C(=O)N[C@@H](CCSC)C(=O)N[C@@H](CCC(=O)O)C(=O)N[C@@H](CCC(=O)O)C(=O)N[C@@H](CCC(=O)O)C(=O)N[C@@H](CCC(=O)O)C(=O)N[C@@H](CCC(=O)O)C(=O)N[C@@H](C)C(=O)N[C@@H](Cc1ccc(O)cc1)C(=O)NCC(=O)N[C@@H](Cc1c[nH]c2ccccc12)C(=O)N[C@@H](CCSC)C(=O)N[C@@H](CC(=O)O)C(=O)N[C@@H](Cc1ccccc1)C(N)=O [G34-CA] (Cholyl-ELGPQGPQHFIADLSKKQRPPMEEEEEAYGWMDF-NH2)
Gastric acid secretion [1]
  absorption across the ileal wall into the circulation: absorption of the conjugated gastrin across the ileal wall into the circulation occurred

## pGlu-Leu-Gly-Pro-Gln-Gly-Pro-Gln-His-Phe-Ile-Ala-Asp-Leu-Ser-Lys-Lys-Gln-Arg-Pro-Pro-Met-Glu-Glu-Glu-Glu-Glu-Ala-Tyr-GlyTrp-Met-Asp-Phe-NH2 ([pGlu]LGPQGPQHFIADLSKKQRPPMEEEEEAYGWMDF-NH2; ends and bridges not checked) [G34]
Gastric acid secretion [2]
  absorption of unconjugated gastrin: absorption of the unconjugated gastrin occurred
Gastric acid secretion [1]; I.V. 10 ng kg^−1, second injection at the end of the experiment, P=0.0005
  stimulation of the peak gastric acid secretion: 0.23 ± 0.051 µmol
Gastric acid secretion [1]; I.V. near threshold dose 10 ng kg^−1, initial injection, P=0.0008
  stimulation of the peak gastric acid secretion: 0.14 ± 0.034 µmol
Gastric acid secretion [1]; infusion into the ileum, 10.5 mg kg^−1 in 1.0 ml, not significant (P=0.16)
  change in mean gastric acid secretion: 0.202±0.262 μmol 180 min^−1
Gastric acid secretion [1]; intraileal infusion of G34 subsequent to intraileal infusion of G34-CA, 4 rats, P=0.004
  mean increase in gastric acid secretion: 5.68±1.38 μmol 180 min^−1
Gastric acid secretion [1]
  effect on gastric acid secretion: without effect on gastric acid secretion

## CSCC[C@H](NC(=O)[C@@H](N)Cc1c[nH]c2ccccc12)C(=O)N[C@@H](CC(=O)O)C(=O)N[C@@H](Cc1ccccc1)C(N)=O [G4, Trp-Met-Asp-Phe amide]
Gastric acid secretion [2]
  absorption from the upper jejunum: lack of absorption
  absorption of unconjugated gastrin: absorption of the unconjugated gastrin occurred
Gastric acid secretion [1]; first intravenous injection (start of experiment)
  increase in gastric acid secretion with respect to baseline: 0.42±0.10 μmol 15 min^1
Gastric acid secretion [1]; ileal infusion, 2500 μg kg^−1 in 1.0 ml isotonic saline, 6 experiments, P=0.043
  fall in the mean gastric acid level: 0.23 ± 0.21 µmol/h
Gastric acid secretion [1]; second intravenous injection (end of experiment)
  increase in gastric acid secretion with respect to baseline: 0.50±0.14 μmol 15 min^1
Gastric acid secretion [1]
  effect on gastric acid secretion: without effect on gastric acid secretion

## CSCC[C@H](NC(=O)[C@H](Cc1c[nH]c2ccccc12)NC(=O)CC[C@@H](C)[C@H]1CC[C@H]2[C@@H]3[C@H](O)C[C@@H]4C[C@H](O)CC[C@]4(C)[C@H]3C[C@H](O)[C@]12C)C(=O)N[C@@H](CC(=O)O)C(=O)N[C@@H](Cc1ccccc1)C(N)=O [G4-CA, cholate-Trp-Met-Asp-Phe amide]
Gastric acid secretion [1]
  absorption across the ileal wall into the circulation: absorption of the conjugated gastrin across the ileal wall into the circulation occurred
